Series [1] relates to acetyl-a-tubuline expression in RPMI8226, U266, and NCI-H929. Kind of series: Acetyl-a-tubuline expression in multiple myeloma cell lines (immunoblotting). It counts as cell-based, human. The method, then:
A study was conducted to evaluate the activity of a compound of Formula (I) in increasing acetyl-a-tubuline expression in human multiple myeloma cell lines (RPMI8226, U266, and NCI-H929).
Cells (1×10^6) were incubated for 10 minutes at 4° C. in a lysis buffer solution in a culture vessel, and then scraped off the culture vessel, incubated on ice for another 10 minutes, and centrifuged at 17,000×g for 30 minutes at 4° C. Protein samples (80 μg) were electrophoresed on SDS gels and transferred onto a nitrocellulose membrane, which was blocked by incubation with 5% fat-free milk in phosphate-buffered saline (PBS) for 30 minutes at room temperature. Immunoblotting was performed by overnight incubation at 4° C. with primary antibodies in PBS, followed by incubation for 1 hour at room temperature with horseradish peroxidase (HRP)-conjugated secondary antibodies, then bound antibodies were measured using enhanced chemiluminescence (ECL) reagent (Advansta Corp., Menlo Park, Calif., USA) and exposure to photographic film.
The study was performed according to the protocol reported in Yang et al., Journal of Molecular Medicine, 2014, November; 92(11):1147-1158.
Background: In western blotting, separated proteins are transferred to a membrane and probed.

The test system of series [2] is BJAB Burkitt lymphoma-derived B-cell. Kind of series: Tumor growth inhibition, BJAB xenograft. The format is in vivo, athymic nude mice. As to conditions: qd, intraperitoneal. The method, then: (§1) An in vivo study was conducted to evaluate the efficacy of compounds of Formula (I) in suppressing tumor growth in multiple human cancer types.
(§2) Eight-week-old athymic nude mice were group-housed under conditions of constant photoperiod (12 h light/12 h dark at 21-23° C. and 60-85% humidity) with ad libitum access to sterilized food and water. All animal experiments followed ethical standards, and protocols were reviewed and approved by the Animal Use and Management Committee of National Taiwan University. Each mouse was inoculated subcutaneously with 1×10^6˜1×10^7 human cancer cells in a total volume of 0.1 mL serum-free medium containing 50% Matrigel (BD Biosciences). As tumors became established (˜100 mm^3), mice were randomized to various groups to be treated with pre-determined materials (n=6-8/group): (i) control group: 0.5% DMSO/0.5% Cremophor/90% D5W and (ii) treatment groups: Compounds 12 and 28 at pre-determined doses daily. Mice received treatment by intraperitoneal injection for the duration of the study. Tumors were measured weekly using calipers. Tumor size, in mm^3, was calculated according to the formula: Tumor volume=(w^2×l)/2, where w and 1 respectively represent the width and length (both in mm) of the tumor.

The test system of series [3] is MDA-MB-231 Breast cancer cell line. Nature of the series: Antiproliferative activity, MDA-MB-231. The format is cell-based, human. To be noted: Homo sapiens, MDA-MB-231, MDA-MB-231. The method, then:
(§3) A study was conducted to evaluate the inhibitory activity of compounds of Formula (I) in inhibiting HDAC6, antiproliferative activity of test compounds in suppressing cancer cell growth, and selectivity of inhibiting HDAC6 over other HDAC isoforms.
(§4) The study was performed according to the protocol reported in Hsieh et al., Cell Death and Disease, 2014, April; 5:e1166.
(§5) Shown in Table 2 below are antiproliferative activities (measured by their half maximal concentration for inhibiting cell growth, i.e., GI50) of the test compounds against various cancer cell lines.

Series [4] has as its system RPMI-8226 Multiple myeloma. Kind of series: Tumor growth inhibition, RPMI-8226 xenograft. The format is in vivo, athymic nude mice. As to conditions: 50 mg/kg, qd. The method, then:
as §1, §2

Series [5] can be described thus: Safety in ICR mice, 7-day intraperitoneal dosing. It counts as in vivo. To be noted: 50, 100, and 200 mg/kg intraperitoneally once a day for 7 days, monitored another 7 days. The method, then:
In addition, both Compounds 12 and 28 were studied to evaluate their safety in animals.
[…]. The animals were dosed intraperitoneally once a day for 7 days and then monitored for another 7 days. The animals were weighed daily for 1 week and then twice weekly.

For the next series, the system named is HCT116 Colorectal. Nature of the series: Tumor growth inhibition, HCT116 xenograft. The format is in vivo, athymic nude mice. As to conditions: qd, intraperitoneal. The method, then:
as §1, §2

Another series concerns polyubiquited proteins. Nature of the series: Accumulation of polyubiquited proteins. It counts as cell-based. As to conditions: dose-dependent. The method, then: (§6) A study was conducted to evaluate the activity of a compound of Formula (I) in inhibiting HDAC6-dynein binding and inducing accumulation of polyubiquited proteins.
(§7) Cell lysates were immunoprecipitated overnight at 4° C. with 1 μg of dynein antibody and A/G-agarose beads. The precipitated beads were washed three times with 1 mL of an ice-cold cell lysis buffer solution. The resulting immune complex was resolved by 10% SDS-PAGE gel electrophoresis, followed by immunoblotting assay using anti-HDAC6 Ab.
(§8) The study was performed according to the protocol reported in Chen et al., Journal of Immunology, 2008, 181(12):8441-8449.

In another series the target is T1, HDAC1 (Homo sapiens, UniProt Q13547).
T1 construct: purchased BPS Bioscience Corp
T1 sequence (Q13547 whole entry): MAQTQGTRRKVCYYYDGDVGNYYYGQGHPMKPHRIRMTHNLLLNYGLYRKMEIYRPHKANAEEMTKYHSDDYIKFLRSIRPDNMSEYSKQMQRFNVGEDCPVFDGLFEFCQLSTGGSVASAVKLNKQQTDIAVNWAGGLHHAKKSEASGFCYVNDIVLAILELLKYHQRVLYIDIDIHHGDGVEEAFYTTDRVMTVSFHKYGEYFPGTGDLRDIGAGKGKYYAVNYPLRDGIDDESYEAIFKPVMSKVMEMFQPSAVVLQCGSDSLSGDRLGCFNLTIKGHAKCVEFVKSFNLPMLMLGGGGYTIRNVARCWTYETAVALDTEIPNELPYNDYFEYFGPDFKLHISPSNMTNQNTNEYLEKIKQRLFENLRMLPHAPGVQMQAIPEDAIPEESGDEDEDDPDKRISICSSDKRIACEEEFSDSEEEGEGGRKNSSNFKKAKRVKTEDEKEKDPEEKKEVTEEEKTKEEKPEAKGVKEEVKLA
Nature of the series: Fluorogenic HDAC assay, HDAC1. As to conditions: recombinant HDAC1; read-out: Enzyme IC50 HDAC1. It counts as biochemical. The source says:
Of note, there are eighteen human HDACs. Eleven of them, designated as HDAC1-11, are zinc-dependent. Seven of them, designated as Sirt1-7, are NAD+-dependent.
Fluorogenic HDAC assay kits were used to assess the ability of HDAC inhibitors to inhibit deacetylation of lysine residues on a substrate by recombinant proteins HDAC1, 3, 4, 5, 6, 7, 8, 9 and Sirt1 according to the manufacturer's instructions (BPS Bioscience Corp., San Diego, Calif., USA).

Series [6] concerns A549 lung cancer cell line. Nature of the series: Antiproliferative activity, A549. The format is cell-based, human. As to conditions: Homo sapiens. The method, then: as §3, §4, §5
In series [7] the test system is PC-3 prostate cancer cell line. Kind of series: Antiproliferative activity, PC-3. It counts as cell-based, human. As to conditions: Homo sapiens. The method, then: as §3, §4, §5
Series [8] concerns scopolamine-induced memory deficit. Kind of series: Water maze test, scopolamine-treated rats. As to conditions: gavage twice daily for seven days; scopolamine 1.5 mg/kg i.p. It counts as in vivo. The method, then: An in vivo study was conducted to evaluate the efficacy of compounds of Formula (I) in improving memory deficits associated with Alzheimer's disease.
Compound 12, Compound 28, suberanilohydroxamic acid (50 mg/kg) or vehicle was given to rats by gavage twice daily for seven days prior to behavioral experiments. On the day conducting a behavior assessment, rats in all groups except the control group were administered scopolamine (1.5 mg/kg) by intraperitoneal injection for 30 minutes before the assessment, then a water maze test or an elevated plus maze test was performed.

For a further series, the target named is T2, HDAC6-dynein binding (Homo sapiens, UniProt Q9UBN7).
T2 construct: endogenous in cells
T2 sequence (Q9UBN7 whole entry): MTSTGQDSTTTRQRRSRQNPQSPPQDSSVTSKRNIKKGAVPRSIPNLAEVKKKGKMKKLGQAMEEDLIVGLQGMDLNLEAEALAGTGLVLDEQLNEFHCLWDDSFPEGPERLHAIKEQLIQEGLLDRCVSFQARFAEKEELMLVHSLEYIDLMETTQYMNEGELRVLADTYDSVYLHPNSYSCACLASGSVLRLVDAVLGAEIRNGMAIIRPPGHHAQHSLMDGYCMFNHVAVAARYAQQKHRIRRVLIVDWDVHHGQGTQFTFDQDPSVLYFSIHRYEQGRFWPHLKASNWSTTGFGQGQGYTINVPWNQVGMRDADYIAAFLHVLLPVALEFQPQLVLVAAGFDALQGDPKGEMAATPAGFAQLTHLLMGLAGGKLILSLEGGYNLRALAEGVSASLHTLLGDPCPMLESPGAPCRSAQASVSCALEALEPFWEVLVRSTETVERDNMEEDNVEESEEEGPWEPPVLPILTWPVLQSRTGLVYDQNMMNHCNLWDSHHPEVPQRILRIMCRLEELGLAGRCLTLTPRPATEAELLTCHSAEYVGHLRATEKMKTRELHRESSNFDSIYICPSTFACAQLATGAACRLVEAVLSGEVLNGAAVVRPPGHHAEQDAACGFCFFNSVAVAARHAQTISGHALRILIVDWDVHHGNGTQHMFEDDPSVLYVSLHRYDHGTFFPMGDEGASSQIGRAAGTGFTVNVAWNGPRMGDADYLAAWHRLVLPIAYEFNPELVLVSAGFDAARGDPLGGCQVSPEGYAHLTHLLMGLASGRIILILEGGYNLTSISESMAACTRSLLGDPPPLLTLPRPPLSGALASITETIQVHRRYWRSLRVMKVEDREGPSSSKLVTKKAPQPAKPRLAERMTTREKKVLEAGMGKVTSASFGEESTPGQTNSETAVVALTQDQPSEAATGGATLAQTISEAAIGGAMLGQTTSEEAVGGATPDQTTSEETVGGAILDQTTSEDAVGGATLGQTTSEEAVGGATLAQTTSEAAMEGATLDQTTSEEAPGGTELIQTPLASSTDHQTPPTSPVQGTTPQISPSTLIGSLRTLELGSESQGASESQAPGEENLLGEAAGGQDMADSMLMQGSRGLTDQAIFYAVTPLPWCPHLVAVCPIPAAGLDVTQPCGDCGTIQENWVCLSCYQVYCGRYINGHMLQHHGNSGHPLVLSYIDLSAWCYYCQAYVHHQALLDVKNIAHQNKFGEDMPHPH
Nature of the series: HDAC6-dynein binding (immunoprecipitation, immunoblotting). It counts as cell-based. To be noted: dose-dependent. The method, then:
as §6, §7, §8

The subject of another series is MDA-MB-231 Breast. Nature of the series: Tumor growth inhibition, MDA-MB-231 xenograft. The format is in vivo, athymic nude mice. As to conditions: qd, intraperitoneal. The method, then: as §1, §2

The structures appear in SMILES notation.

Take `O=C(NO)c1ccc(CNc2cccc3cccnc23)cc1` [Compound 28, N-hydroxy-4-((quinolin-8-ylamino)methyl)benzamide]: the acetyl-a-tubuline expression entry in series [1] is reported as “increasing acetyl-a-tubuline expression in a dose-dependent manner”. Also, the “% TGI” value in series [2] (25 mg/kg) came to 40.8%; in series [2] (50 mg/kg), 74.0%; in [4] (intraperitoneal), 80.0%; with HCT116 Colorectal (50 mg/kg), 9.1%; with HCT116 Colorectal (100 mg/kg), 44.4%; in the series with MDA-MB-231 Breast (25 mg/kg), 38.6%. Besides, the “% TGI” value in the series on MDA-MB-231 Breast (50 mg/kg) is listed as 56.4%. For the same compound, the values for the GI50 in series [3], in [6] and in [7] were 1.89 ± 0.33 µM, 5.24 ± 0.18 µM and 3.4 ± 0.13 µM, respectively. Further, the “Best Response” value in series [4] (CR: complete regression) stood at 2 × CR^a. Moreover, the tolerability entry in [5] is “well tolerated”. In addition, the “accumulation of polyubiquited proteins” value in the series with polyubiquited proteins is given as “induced accumulation of polyubiquited proteins”. Besides, the IC50 (commonly the concentration needed to halve the response being measured) at HDAC1 was 6.7 µM. Also, the “time spent in the correct quadrant (water maze)” value in [8] is “markedly reverse this effect”. Besides, the HDAC6-dynein binding entry on HDAC6-dynein binding was “inhibited HDAC6-dynein binding”.

(Values after patent US11427544B2, “Histone deacetylase 6 inhibitors and use thereof” (TAIPEI MEDICAL UNIVERSITY, priority 2016, dated 2022).)
